Measured values: ChEMBL document CHEMBL3046319, “PCR-RFLP detection of the E198A mutation conferring resistance to benzimidazoles in field isolates of Monilinia laxa from Greece” (Crop Prot, 2012)
In brackets after ≈: the same amount, converted by molar mass. Activity calls are given as the source filed them. No cut-off for these calls is given here.

Assays:
Monilinia laxa [1] = assay: Fungicidal activity against Monilinia laxa isolate MLNS2 assessed as reduction in mycelial growth rate at 1 to 10 ug/ml at 25 to 28 degC; type: functional, organism-based
Monilinia laxa [2] = assay: Fungicidal activity against Monilinia laxa isolate MLBO2 assessed as mycelial growth at 1 ug/ml at 25 degC after 4 days; type: functional
Monilinia laxa [3] = assay: Fungicidal activity against Monilinia laxa isolate MLK12 assessed as reduction in mycelial growth rate at 1 to 10 ug/ml at 28 degC after 8 days; type: functional, organism-based
Monilinia laxa [4] = assay: Fungicidal activity against Monilinia laxa isolate MLG1 assessed as reduction in mycelial growth rate at 25 degC after 4 days; type: functional, organism-based; details: isolate MLG1, 96 h
Monilinia laxa [5] = assay: Fungicidal activity against Monilinia laxa isolate MLC3 assessed as reduction in mycelial growth rate at 1 to 10 ug/ml at 31 degC after 5 days; type: functional, organism-based
Monilinia laxa [6] = assay: Fungicidal activity against Monilinia laxa isolate MLBO5 assessed as reduction in mycelial growth rate at 1 to 10 ug/ml at 31 degC after 5 days; type: functional, organism-based
Monilinia laxa [7] = assay: Fungicidal activity against Monilinia laxa isolate MLBO5 assessed as mean mycelial colony diameter at 25 degC after 4 days; type: functional
Monilinia laxa [8] = assay: Fungicidal activity against Monilinia laxa isolate MLB1 assessed as reduction in mycelial growth rate at 1 to 10 ug/ml at 28 degC after 8 days; type: functional, organism-based
Monilinia laxa [9] = assay: Fungicidal activity against Monilinia laxa isolate MLKS2 assessed as reduction in mycelial growth rate at 1 to 10 ug/ml at 31 degC after 5 days; type: functional, organism-based
Monilinia laxa [10] = assay: Fungicidal activity against Monilinia laxa isolate MLBO8 assessed as reduction in mycelial growth rate at 1 to 10 ug/ml at 31 degC after 5 days; type: functional, organism-based
Monilinia laxa [11] = assay: Fungicidal activity against Monilinia laxa isolate MLX5 assessed as mean mycelial colony diameter at 25 degC after 4 days; type: functional
Monilinia laxa [12] = assay: Fungicidal activity against Monilinia laxa isolate MLG2 assessed as reduction in mycelial growth rate at 25 degC after 4 days; type: functional, organism-based; details: isolate MLG2, 96 h
Monilinia laxa [13] = assay: Fungicidal activity against Monilinia laxa isolate MLG4 assessed as reduction in mycelial growth rate at 25 degC after 4 days; type: functional, organism-based; details: isolate MLG4, 96 h
Monilinia laxa [14] = assay: Fungicidal activity against Monilinia laxa isolate MLK24 assessed as reduction in mycelial growth rate at 25 degC after 4 days; type: functional, organism-based; details: isolate MLK24, 96 h
Monilinia laxa [15] = assay: Fungicidal activity against Monilinia laxa isolate MLX3 assessed as reduction in mycelial growth rate at 1 to 10 ug/ml at 25 to 28 degC; type: functional, organism-based
Monilinia laxa [16] = assay: Fungicidal activity against Monilinia laxa isolate MLP4 assessed as mycelial growth at 1 ug/ml at 25 degC after 4 days; type: functional
Monilinia laxa [17] = assay: Fungicidal activity against Monilinia laxa isolate MLBO3 assessed as reduction in mycelial growth rate at 25 degC after 4 days; type: functional, organism-based; details: isolate MLBO3, 96 h
Monilinia laxa [18] = assay: Fungicidal activity against Monilinia laxa isolate MLKS1 assessed as reduction in mycelial growth rate at 25 degC after 4 days; type: functional, organism-based; details: isolate MLKS1, 96 h
Monilinia laxa [19] = assay: Fungicidal activity against Monilinia laxa isolate MLP2 assessed as mean number of conidia produced in the colony at 25 degC after 12 days by haemocytometer; type: functional
Monilinia laxa [20] = assay: Fungicidal activity against Monilinia laxa isolate MLK12 assessed as reduction in mycelial growth rate at 25 degC after 4 days; type: functional, organism-based; details: isolate MLK12, 96 h
Monilinia laxa [21] = assay: Fungicidal activity against Monilinia laxa isolate MLG5 assessed as reduction in mycelial growth rate at 1 to 10 ug/ml at 31 degC after 5 days; type: functional, organism-based
Monilinia laxa [22] = assay: Fungicidal activity against Monilinia laxa isolate MLBO5 assessed as reduction in mycelial growth rate at 25 degC after 4 days; type: functional, organism-based; details: isolate MLBO5, 96 h
Monilinia laxa [23] = assay: Fungicidal activity against Monilinia laxa isolate MLK12 assessed as mycelial growth at 1 ug/ml at 25 degC after 4 days; type: functional
Monilinia laxa [24] = assay: Fungicidal activity against Monilinia laxa isolate MLK6 assessed as reduction in mycelial growth rate at 1 to 10 ug/ml at 25 to 28 degC; type: functional, organism-based
Monilinia laxa [25] = assay: Fungicidal activity against Monilinia laxa isolate MLC2 assessed as virulence in prune fruits assessed as virulence treated 10 min prior to mycelial inoculation at 24 degC after 10 days relative to isolate MLX1by pathogenicity bioassay; type: functional
Monilinia laxa [26] = assay: Fungicidal activity against Monilinia laxa isolate KX2 assessed as reduction in mycelial growth rate at 1 to 10 ug/ml at 31 degC after 5 days; type: functional, organism-based
Monilinia laxa [27] = assay: Fungicidal activity against Monilinia laxa isolate KX5 assessed as reduction in mycelial growth rate at 1 to 10 ug/ml at 31 degC after 5 days; type: functional, organism-based
Monilinia laxa [28] = assay: Fungicidal activity against Monilinia laxa isolate MLK4A assessed as reduction in mycelial growth rate at 25 degC after 4 days; type: functional, organism-based; details: 96 h
Monilinia laxa [29] = assay: Fungicidal activity against Monilinia laxa isolate MLP2 assessed as virulence in prune fruits assessed as virulence treated 10 min prior to mycelial inoculation at 24 degC after 10 days relative to isolate MLX1by pathogenicity bioassay; type: functional
Monilinia laxa [30] = assay: Fungicidal activity against Monilinia laxa isolate MLG2 assessed as reduction in mycelial growth rate at 1 to 10 ug/ml at 31 degC after 5 days; type: functional, organism-based
Monilinia laxa [31] = assay: Fungicidal activity against Monilinia laxa isolate MLK12 assessed as virulence in prune fruits assessed as virulence treated 10 min prior to mycelial inoculation at 24 degC after 10 days relative to isolate MLX1by pathogenicity bioassay; type: functional
Monilinia laxa [32] = assay: Fungicidal activity against Monilinia laxa isolate MLA1 assessed as reduction in mycelial growth rate at 1 to 10 ug/ml at 31 degC after 5 days; type: functional, organism-based
Monilinia laxa [33] = assay: Fungicidal activity against Monilinia laxa isolate MLAl8 assessed as reduction in mycelial growth rate at 1 to 10 ug/ml at 25 to 28 degC; type: functional, organism-based
Monilinia laxa [34] = assay: Fungicidal activity against Monilinia laxa isolate MLG1 assessed as reduction in mycelial growth rate at 1 to 10 ug/ml at 31 degC after 5 days; type: functional, organism-based
Monilinia laxa [35] = assay: Fungicidal activity against Monilinia laxa isolate MLC1 assessed as reduction in mycelial growth rate at 1 to 10 ug/ml at 31 degC after 5 days; type: functional, organism-based
Monilinia laxa [36] = assay: Fungicidal activity against Monilinia laxa isolate MLX3 assessed as reduction in mycelial growth rate at 1 to 10 ug/ml at 28 degC after 8 days; type: functional, organism-based
Monilinia laxa [37] = assay: Fungicidal activity against Monilinia laxa isolate MLBO6 assessed as reduction in mycelial growth rate at 1 to 10 ug/ml at 31 degC after 5 days; type: functional, organism-based
Monilinia laxa [38] = assay: Fungicidal activity against Monilinia laxa isolate KX5 assessed as reduction in mycelial growth rate at 1 to 10 ug/ml at 28 degC after 8 days; type: functional, organism-based
Monilinia laxa [39] = assay: Fungicidal activity against Monilinia laxa isolate B1 assessed as reduction in mycelial growth rate at 1 to 10 ug/ml at 31 degC after 5 days; type: functional, organism-based
Monilinia laxa [40] = assay: Fungicidal activity against Monilinia laxa isolate MLX5 assessed as reduction in mycelial growth rate at 1 to 10 ug/ml at 25 to 28 degC; type: functional, organism-based
Monilinia laxa [41] = assay: Fungicidal activity against Monilinia laxa isolate KX4 assessed as reduction in mycelial growth rate at 1 to 10 ug/ml at 25 to 28 degC; type: functional, organism-based

## COC(=O)Nc1nc2ccccc2[nH]1 [CARBENDAZIM]
Monilinia laxa [1]
  inhibition: inactive
Monilinia laxa [2]
  Activity: 0%
Monilinia laxa [3]
  inhibition: inactive
Monilinia laxa [4]
  EC50: 0.1 µg/mL (≈ 0.523 µM)
Monilinia laxa [5]
  inhibition: Active
Monilinia laxa [6]
  inhibition: Active
Monilinia laxa [7]
  Activity: 29.5 mm
Monilinia laxa [8]
  inhibition: inactive
Monilinia laxa [9]
  inhibition: Active
Monilinia laxa [10]
  inhibition: Active
Monilinia laxa [11]
  Activity: 28.3 mm
Monilinia laxa [12]
  EC50: 0.08 µg/mL (≈ 0.418 µM)
Monilinia laxa [13]
  EC50: 0.11 µg/mL (≈ 0.575 µM)
Monilinia laxa [14]
  EC50: 0.02 µg/mL (≈ 0.105 µM)
Monilinia laxa [15]
  inhibition: inactive
Monilinia laxa [16]
  Activity: 94.44%
Monilinia laxa [17]
  EC50: 0.05 µg/mL (≈ 0.262 µM)
Monilinia laxa [18]
  EC50: 0.11 µg/mL (≈ 0.575 µM)
Monilinia laxa [19]
  Activity: 4.15 /cm2
Monilinia laxa [20]
  EC50: > 50 µg/mL
Monilinia laxa [21]
  inhibition: Active
Monilinia laxa [22]
  EC50: 0.07 µg/mL (≈ 0.366 µM)
Monilinia laxa [23]
  Activity: 95.82%
Monilinia laxa [24]
  inhibition: inactive
Monilinia laxa [25]
  Activity: 98.52%
Monilinia laxa [26]
  inhibition: Active
Monilinia laxa [27]
  inhibition: Active
Monilinia laxa [28]
  EC50: 0.12 µg/mL (≈ 0.628 µM)
Monilinia laxa [29]
  Activity: 87.37%
Monilinia laxa [30]
  inhibition: Active
Monilinia laxa [31]
  Activity: 99.2%
Monilinia laxa [32]
  inhibition: Active
Monilinia laxa [33]
  inhibition: inactive
Monilinia laxa [34]
  inhibition: Active
Monilinia laxa [35]
  inhibition: Active
Monilinia laxa [36]
  inhibition: inactive
Monilinia laxa [37]
  inhibition: Active
Monilinia laxa [38]
  inhibition: inactive
Monilinia laxa [39]
  inhibition: Active
Monilinia laxa [40]
  inhibition: inactive
Monilinia laxa [41]
  inhibition: inactive
